Source: patent publication US10912780B2, “Heterocyclic compounds useful as anti-bacterial agents and method for production thereof” (Bugworks Research, Inc., priority 2017, dated 2021)
In brackets after ≈: the same amount, converted by molar mass. Several values for one entry are separate records, joined by “and”; a condition that tells them apart may be missing. Equal entries are not always repeated.

How the values were obtained:
[1] = tested on: K. pneumoniae clinical strains; assay: Antibacterial susceptibility studies (MIC50 and MIC90) with clinical strains, CLSI guidelines; assay type: cell-based
[2] = tested on: P. aeruginosa [ATCC27853]; assay: Neutropenic lung infection model in rat; assay type: in vivo; details: for MEAN ± SD (Log 10 CFU/g Lung) / Mean Log 10CFU/g lung reduction (wrt 4 h PI control 5.78 Log10CFU/g lung) / Log 10 CFU/g Lung: neutropenic rat, 24 h post infection; for Log 10 CFU/g Lung: individual animals
Protocol: The purpose of this study was to evaluate the efficacy of example 15 against P. aeruginosa [ATCC27853], following single dose intravenous infusion doses of 10, 30 and 100 mg/kg in a neutropenic lung infection model in rats
Prior to the start of the infection process, all animals were divided into different groups. All grouped cages of animals were carried to a procedure room, close to a biological safety cabinet. All infections were conducted in a biological safety cabinet, with appropriate personnel protection. Animals were placed into an induction chamber and anaesthesia was induced by exposing the animals to 3-5% Isoflurane in an oxygen flow set at approximately (˜) 1 liter per minute (LPM). Once the animals were in a sufficiently deep plane of anaesthesia as monitored by pedal reflex, they were removed and infected (2). […] A gentle mixing of inoculum between two animals was followed for uniform distribution.
The IV formulation vehicle used for example 15 was 10% of L-ascorbic acid in fresh MilliQ water (w/v) with pH adjusted to ˜4.0 with 1N Sodium hydroxide solution (w/v), and the dose volume was 10 mL/kg. Meropenem was formulated in saline. […] The dose levels of the test Example 15 were 10, 30 and 100 mg/kg.
All the animals in groups were sacrificed at 24 h post infection, as specified in experimental design, by an overdose of CO2 in an appropriate exposure chamber. The group 1 animals were sacrificed at 4 hrs post infection. The euthanized animals were dipped into 70% ethanol for surface decontamination. Entire Lung was aseptically isolated, weighed and placed into 1 mL of sterile CSDB broth, and homogenized (Omni Tip (220 V hand held)). Serial ten-fold dilutions of the lungs homogenates were prepared in sterile CSD broth and 0.05 mL of four dilutions for each tissue was plated onto CSDA agar plates. Bacterial colonies were enumerated following overnight incubation at 37° C. Bacterial densities were estimated as Log10 CFU/g lung. The Mean±SD Log10 CFU/g lung was estimated in each group. Significant differences between group means and control were analyzed by one way ANOVA, followed by a Dunnett's multiple comparison test, using Graphpad Prism at 95% confidence levels.

[3] = tested on: Enterococcus faecalis ATCC 29212; assay: Minimum Inhibitory Concentration (MIC) in LB media; assay type: cell-based; details: Enterococcus faecalis, ATCC29212, read-out: Minimum Inhibitory Concentration E. faecalis ATCC 29212
Method in brief: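 Broth microdilution in LB using cultures grown to OD600 0.8 to 1; compounds tested as twofold dilutions from a 4 mg/ml DMSO stock. Plates incubated overnight at 37° C., growth read by absorbance at 600 nm to give MIC.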

Structure (SMILES): Cn1c(=O)ccc2ccc(F)c(CCNC[C@H]3CN(c4cnc5c(n4)NC(=O)CO5)C(=O)O3)c21 [Example 15, (S)-6-(5-(((2-(7-fluoro-1-methyl-2-oxo-1,2-dihydroquinolin-8-yl)ethyl)amino)methyl)-2-oxooxazolidin-3-yl)-2H-pyrazino[2,3-b][1,4]oxazin-3(4H)-one]
- MIC ATCC13883 ([1]; K. pneumoniae reference strain ATCC13883, no unit in this line): 0.03 µg/mL (≈ 0.064 µM)
- MIC50 ([1]; Klebsiella pneumoniae): 0.5 µg/mL (≈ 1.07 µM)
- MIC90 ([1]; Klebsiella pneumoniae): 1 µg/mL (≈ 2.13 µM)
- Minimum ([1]; lowest MIC among K. pneumoniae clinical strains (211 strains; Example 15: 176), no unit in this line): 0.06
- MEAN ± SD (Log 10 CFU/g Lung) ([2]; 10 mg/kg, i.v. 1 h infusion): 6.63 ± 0.15 Log 10 CFU/g Lung
- Mean Log 10CFU/g lung reduction (wrt 4 h PI control 5.78 Log10CFU/g lung) ([2]; 10 mg/kg, i.v. 1 h infusion): −0.85 Log10CFU/g lung
- MEAN ± SD (Log 10 CFU/g Lung) ([2]; 30 mg/kg, i.v., 1 h infusion): 4.74 ± 0.08 Log 10 CFU/g Lung
- Mean Log 10CFU/g lung reduction (wrt 4 h PI control 5.78 Log10CFU/g lung) ([2]; 30 mg/kg, i.v., 1 h infusion): 1.04 Log10CFU/g lung
- MEAN ± SD (Log 10 CFU/g Lung) ([2]; 100 mg/kg, i.v., 1 h infusion): 4.76 ± 0.2 Log 10 CFU/g Lung
- Mean Log 10CFU/g lung reduction (wrt 4 h PI control 5.78 Log10CFU/g lung) ([2]; 100 mg/kg, i.v., 1 h infusion): 1.02 Log10CFU/g lung
- Log 10 CFU/g Lung ([2]; 10 mg/g, i.v. 1 h infusion): 6.68 Log 10 CFU/g Lung and 6.75 Log 10 CFU/g Lung and 6.47 Log 10 CFU/g Lung
- Log 10 CFU/g Lung ([2]; 30 mg/kg, i.v., 1 h infusion): 4.79 Log 10 CFU/g Lung and 4.65 Log 10 CFU/g Lung and 4.78 Log 10 CFU/g Lung
- Log 10 CFU/g Lung ([2]; 100 mg/kg, i.v., 1 h infusion): 4.84 Log 10 CFU/g Lung and 4.53 Log 10 CFU/g Lung and 4.90 Log 10 CFU/g Lung
- efficacy compared to the early infection control (in words) ([2]; rat lung model, 10 mg/kg): bacteriostatic
- efficacy with respect to early infection control (in words) ([2]; rat lung model, 30 mg/kg and 100 mg/kg): significant efficacy
- efficacy versus standard drug (in words) ([2]; rat lung model, similar dose (30 mg/kg)): comparable to standard drug meropenem
- MIC [3]: 0.06 µg/mL (≈ 0.128 µM)
